Source: the supplement of paper PMC10627819

Tests used:
Test in all cases: fitness (endpoint OD595 vs no drug) (fraction); higher = more growth
S. aureus Newman = test system: S. aureus Newman
Method in brief: (§1)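 Fitness compares growth at the stationary-phase transition with the robust mean of no-drug control wells, as a ratio of optical densities. The ratio is capped at 1. Wells of 384-well plates held 30 µl, or 55 µl for S. pneumoniae, inoculated at OD595 0.01. Readings at OD595 every 30 min for 14 h at 37 °C were corrected against the first reading.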

B. subtilis 168 = details: main component drawn
Method in brief: as §1

S. aureus DSM 20231 = test system: S. aureus DSM 20231
Method in brief: as §1

S. pneumoniae D39V = test system: S. pneumoniae D39V
Method in brief: as §1
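Also: OD595 on entry to stationary phase over no-drug wells; at most 1.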

CC[C@H](C)[C@H](N)C1=N[C@H](C(=O)N[C@@H](CC(C)C)C(=O)N[C@H](CCC(=O)O)C(=O)N[C@H](C(=O)N[C@H]2CCCCNC(=O)[C@H](CC(N)=O)NC(=O)[C@@H](CC(=O)O)NC(=O)[C@H](Cc3cnc[nH]3)NC(=O)[C@@H](Cc3ccccc3)NC(=O)[C@H]([C@@H](C)CC)NC(=O)[C@@H](CCCN)NC2=O)[C@@H](C)CC)CS1 [Bacitracin] + CC1(C)S[C@@H]2[C@H](NC(=O)Cc3ccccc3)C(=O)N2[C@H]1C(=O)O [Penicillin G]
fitness, S. aureus Newman, main component drawn
Details | first compound 18.75 µg/mL | first compound 37.5 µg/mL | first compound 75 µg/mL
partner 0.0195 µg/mL | 0.642 | 0.35 | 0.018
partner 0.039 µg/mL | 0.698 | 0.2 | 0.0199
partner 0.078 µg/mL | 0.69 | – | 0.0358

CC[C@H](C)[C@H](N)C1=N[C@H](C(=O)N[C@@H](CC(C)C)C(=O)N[C@H](CCC(=O)O)C(=O)N[C@H](C(=O)N[C@H]2CCCCNC(=O)[C@H](CC(N)=O)NC(=O)[C@@H](CC(=O)O)NC(=O)[C@H](Cc3cnc[nH]3)NC(=O)[C@@H](Cc3ccccc3)NC(=O)[C@H]([C@@H](C)CC)NC(=O)[C@@H](CCCN)NC2=O)[C@@H](C)CC)CS1 [Bacitracin] + CN(C)[C@@H]1C(O)=C(C(N)=O)C(=O)[C@@]2(O)C(O)=C3C(=O)c4c(O)ccc(Cl)c4[C@@](C)(O)[C@H]3C[C@@H]12 [Chlortetracycline]
fitness, B. subtilis 168
Details | first compound 37.5 µg/mL | first compound 75 µg/mL | first compound 150 µg/mL
partner 0.0475 µg/mL | 0.865 | 0.856 | 0.723
partner 0.095 µg/mL | 0.753 | 0.68 | 0.497
partner 0.19 µg/mL | – | – | 0.0687

CC[C@H](C)[C@H](N)C1=N[C@H](C(=O)N[C@@H](CC(C)C)C(=O)N[C@H](CCC(=O)O)C(=O)N[C@H](C(=O)N[C@H]2CCCCNC(=O)[C@H](CC(N)=O)NC(=O)[C@@H](CC(=O)O)NC(=O)[C@H](Cc3cnc[nH]3)NC(=O)[C@@H](Cc3ccccc3)NC(=O)[C@H]([C@@H](C)CC)NC(=O)[C@@H](CCCN)NC2=O)[C@@H](C)CC)CS1 [Bacitracin] + CO[C@@]12[C@H](COC(N)=O)C3=C(C(=O)C(C)=C(N)C3=O)N1C[C@@H]1N[C@@H]12 [Mitomycin C]
fitness, S. aureus Newman, main component drawn
Details | first compound 18.75 µg/mL | first compound 37.5 µg/mL | first compound 75 µg/mL
partner 0.0156 µg/mL | 0.56 | – | 0.0457
partner 0.0312 µg/mL | 0.419 | 0.0317 | 0.0152
partner 0.0625 µg/mL | 0.229 | 0.0144 | 0

CC[C@H](C)[C@H](N)C1=N[C@H](C(=O)N[C@@H](CC(C)C)C(=O)N[C@H](CCC(=O)O)C(=O)N[C@H](C(=O)N[C@H]2CCCCNC(=O)[C@H](CC(N)=O)NC(=O)[C@@H](CC(=O)O)NC(=O)[C@H](Cc3cnc[nH]3)NC(=O)[C@@H](Cc3ccccc3)NC(=O)[C@H]([C@@H](C)CC)NC(=O)[C@@H](CCCN)NC2=O)[C@@H](C)CC)CS1 [Bacitracin] + N[C@@H]1CONC1=O [Cycloserine D]
fitness, B. subtilis 168
Details | first compound 37.5 µg/mL | first compound 75 µg/mL | first compound 150 µg/mL
partner 0.125 µg/mL | 0.893 | 0.89 | 0.737
partner 0.25 µg/mL | 0.894 | 0.898 | –
partner 0.5 µg/mL | 0.858 | 0.858 | –

fitness, S. aureus Newman, main component drawn
Details | first compound 18.75 µg/mL | first compound 37.5 µg/mL | first compound 75 µg/mL
partner 0.375 µg/mL | 0.761 | 0.282 | 0.0299
partner 0.75 µg/mL | 0.761 | 0.28 | 0.0202
partner 1.5 µg/mL | 0.74 | 0.202 | 0.0116

CC[C@H](C)[C@H](N)C1=N[C@H](C(=O)N[C@@H](CC(C)C)C(=O)N[C@H](CCC(=O)O)C(=O)N[C@H](C(=O)N[C@H]2CCCCNC(=O)[C@H](CC(N)=O)NC(=O)[C@@H](CC(=O)O)NC(=O)[C@H](Cc3cnc[nH]3)NC(=O)[C@@H](Cc3ccccc3)NC(=O)[C@H]([C@@H](C)CC)NC(=O)[C@@H](CCCN)NC2=O)[C@@H](C)CC)CS1 [Bacitracin] + O=C(O)[C@H]1/C(=C/CO)O[C@@H]2CC(=O)N21 [Clavulanic acid]
fitness, B. subtilis 168
Details | partner 1.5 µg/mL | partner 3 µg/mL | partner 6 µg/mL
first compound 37.5 µg/mL | 0.906 | 0.86 | 0.795
first compound 75 µg/mL | 0.915 | 0.838 | 0.734

fitness, S. aureus Newman, one replicate, main component drawn
Details | first compound 18.75 µg/mL | first compound 37.5 µg/mL | first compound 75 µg/mL
partner 0.03125 µg/mL | 0.682 | 0.298 | 0.0064
partner 0.0625 µg/mL | 0.673 | 0.251 | 0.0152
partner 0.125 µg/mL | 0.686 | 0.219 | 0.0264

CC(=O)NC[C@H]1CN(c2ccc(N3CCOCC3)c(F)c2)C(=O)O1 [Linezolid] + CO[C@@]12[C@H](COC(N)=O)C3=C(C(=O)C(C)=C(N)C3=O)N1C[C@@H]1N[C@@H]12 [Mitomycin C]
Details | fitness
S. aureus DSM 20231, first compound 0.125 µg/mL, partner 0.0156 µg/mL | 0.681
S. aureus DSM 20231, first compound 0.125 µg/mL, partner 0.0312 µg/mL | 0.68
S. aureus DSM 20231, first compound 0.125 µg/mL, partner 0.0625 µg/mL | 0.531
S. aureus DSM 20231, first compound 0.25 µg/mL, partner 0.0156 µg/mL | 0.466
S. aureus DSM 20231, first compound 0.25 µg/mL, partner 0.0312 µg/mL | 0.458
S. aureus DSM 20231, first compound 0.25 µg/mL, partner 0.0625 µg/mL | 0.296
S. aureus DSM 20231, first compound 0.5 µg/mL, partner 0.0156 µg/mL | 0.141
S. aureus DSM 20231, first compound 0.5 µg/mL, partner 0.0312 µg/mL | 0.105
S. aureus DSM 20231, first compound 0.5 µg/mL, partner 0.0625 µg/mL | 0.0726
S. pneumoniae D39V, first compound 0.105 µg/mL, partner 0.002 µg/mL | 0.745
S. pneumoniae D39V, first compound 0.105 µg/mL, partner 0.004 µg/mL | 0.669
S. pneumoniae D39V, first compound 0.105 µg/mL, partner 0.008 µg/mL | 0.524
S. pneumoniae D39V, first compound 0.2 µg/mL, partner 0.001075 µg/mL | 0.745
S. pneumoniae D39V, first compound 0.2 µg/mL, partner 0.00215 µg/mL | 0.733
S. pneumoniae D39V, first compound 0.2 µg/mL, partner 0.0043 µg/mL | 0.634
S. pneumoniae D39V, first compound 0.21 µg/mL, partner 0.002 µg/mL | 0.563
S. pneumoniae D39V, first compound 0.21 µg/mL, partner 0.004 µg/mL | 0.563
S. pneumoniae D39V, first compound 0.21 µg/mL, partner 0.008 µg/mL | 0.397
S. pneumoniae D39V, first compound 0.4 µg/mL, partner 0.001075 µg/mL | 0.618
S. pneumoniae D39V, first compound 0.4 µg/mL, partner 0.00215 µg/mL | 0.626
S. pneumoniae D39V, first compound 0.4 µg/mL, partner 0.0043 µg/mL | 0.366
S. pneumoniae D39V, first compound 0.42 µg/mL, partner 0.002 µg/mL | 0.414
S. pneumoniae D39V, first compound 0.42 µg/mL, partner 0.004 µg/mL | 0.389
S. pneumoniae D39V, first compound 0.42 µg/mL, partner 0.008 µg/mL | 0.23
S. pneumoniae D39V, first compound 0.8 µg/mL, partner 0.001075 µg/mL | 0.316
S. pneumoniae D39V, first compound 0.8 µg/mL, partner 0.00215 µg/mL | 0.323
S. pneumoniae D39V, first compound 0.8 µg/mL, partner 0.0043 µg/mL | 0.258

S. aureus DSM 20231, first compound 1 µg/mL, one replicate
Details | fitness
partner 0.0156 µg/mL | 0.0176
partner 0.0312 µg/mL | 0.0107
partner 0.0625 µg/mL | 0.0169

CO[C@@]12[C@H](COC(N)=O)C3=C(C(=O)C(C)=C(N)C3=O)N1C[C@@H]1N[C@@H]12 [Mitomycin C] + C/C(=C\C(=O)OCCCCCCCCC(=O)O)C[C@@H]1OC[C@H](C[C@@H]2O[C@H]2[C@@H](C)[C@H](C)O)[C@@H](O)[C@H]1O [Pseudomonic acid]
fitness, S. aureus Newman, one replicate
Details | first compound 0.0156 µg/mL | first compound 0.0312 µg/mL | first compound 0.0625 µg/mL
partner 0.0313 µg/mL | 0.0474 | 0.0196 | 0.0148
partner 0.0625 µg/mL | 0.0185 | 0.0244 | 0.0093
partner 0.125 µg/mL | 0.0351 | 0.0217 | 0.029

fitness, S. pneumoniae D39V
Details | first compound 0.001075 µg/mL | first compound 0.002 µg/mL | first compound 0.00215 µg/mL | first compound 0.004 µg/mL | first compound 0.0043 µg/mL | first compound 0.008 µg/mL
partner 0.03 µg/mL | 0.914 | 0.855 | 0.919 | 0.741 | 0.818 | 0.612
partner 0.06 µg/mL | 0.806 | 0.725 | 0.795 | 0.64 | 0.731 | 0.523
partner 0.12 µg/mL | 0.587 | 0.549 | 0.584 | 0.498 | 0.51 | 0.322

CO[C@@]12[C@H](COC(N)=O)C3=C(C(=O)C(C)=C(N)C3=O)N1C[C@@H]1N[C@@H]12 [Mitomycin C] + CC1(C)S[C@@H]2[C@H](NC(=O)Cc3ccccc3)C(=O)N2[C@H]1C(=O)O [Penicillin G]
fitness, S. aureus Newman
Details | first compound 0.0156 µg/mL | first compound 0.0312 µg/mL | first compound 0.0625 µg/mL
partner 0.0195 µg/mL | 0.671 | 0.562 | 0.441
partner 0.039 µg/mL | 0.646 | 0.556 | 0.389
partner 0.078 µg/mL | 0.636 | 0.564 | 0.412
